Common to all, as to assay: ≥ marks a high value that may be exact or a test limit, other limits are often not marked, values filed in µg/mL are converted to µM
In assay [1] the test system is Bacillus cereus.
Assay [2] concerns Candida albicans MTCC 227.
Assay [3] deals with Escherichia coli DH5alpha.
Assay [4] has as its system Fusarium solani MTCC 10158.
Assay [5] concerns Salmonella enterica subsp. enterica serovar Typhi.
For assay [6], the system named is Staphylococcus aureus ATCC 43300.
In assay [7] the test system is Vibrio cholerae.
Assay [8] deals with Xanthomonas axonopodis ITCC BD00029.
The subject of assay [9] is Xanthomonas oryzae ITCC BB00026.
Assay [10] relates to Escherichia coli K-12 594.
In assay [11] the test system is Staphylococcus aureus ATCC 6538P.
Assay [12] concerns Staphylococcus aureus SR1550.
The subject of assay [13] is Micrococcus luteus 1D00051.
For assay [14], the system named is Staphylococcus aureus 1D00101.
Assay [15] concerns Vibrio vulnificus 1H00066.
Assay [16] deals with Aspergillus niger CECT 2694.
Assay [17] concerns Erwinia amylovora PMV 6076.
Assay [18] relates to Fusarium oxysporum f. sp. lycopersici ATCC 201829.
Assay [19] concerns Penicillium expansum EPS 26.
Assay [20] relates to Pseudomonas syringae EPS 94.
The test system of assay [21] is Rhizopus stolonifer CECT 2344.
Assay [22] relates to Xanthomonas vesicatoria 2133-2.
The test system of assay [23] is Staphylococcus aureus 5118.
Assay [24] concerns Staphylococcus aureus ATCC 9144.
Assay [25] relates to Staphylococcus aureus E4049.
Assay [26] deals with Bacillus subtilis CMCC 63501.
For assay [27], the system named is Listeria monocytogenes ATCC 19115.
The subject of assay [28] is Staphylococcus aureus CMCC 26003.

Values after ≈ are worked out from the molar mass of the structure shown. Bounds are passed on as bounds.

For orientation: MIC means the lowest concentration found to suppress growth. High values mean a need for much substance, low ones inhibition by little substance. `NCCCC[C@H](NC(=O)[C@H](CCCCN)NC(=O)[C@H](CO)NC(=O)[C@H](CO)NC(=O)[C@H](CCCCN)NC(=O)[C@H](Cc1c[nH]c2ccccc12)NC(=O)[C@H](CCCN=C(N)N)NC(=O)[C@H](Cc1c[nH]c2ccccc12)NC(=O)[C@H](CCCN=C(N)N)NC(=O)[C@@H](N)CO)C(=O)O` [SRWRWKSSKK]: the MIC was 30 µM (≈ 40.5 µg/mL) in assay [1]; at least 40 µM in [2]; 30 µM (≈ 40.5 µg/mL) in assay [3]; 20 µM (≈ 27 µg/mL) in assay [4]; 20 µM (≈ 27 µg/mL) in [5]; 20 µM (≈ 27 µg/mL) in assay [6]. Besides, the MIC in assay [7] is 30 µM (≈ 40.5 µg/mL); in assay [8], 10 µM (≈ 13.5 µg/mL); in assay [9], 10 µM (≈ 13.5 µg/mL).
Regarding `CC(C)C[C@H](NC(=O)[C@H](CC(C)C)NC(=O)[C@H](CC(C)C)NC(=O)[C@H](CC(C)C)NC(=O)[C@H](CC(C)C)NC(=O)[C@H](CCCCN)NC(=O)[C@H](CC(C)C)NC(=O)[C@@H](N)CCCCN)C(N)=O` [KLKLLLLL], the minimal inhibitory concentration (MIC) is 21 µM (≈ 20 µg/mL) in assay [10], 8.39 µM (≈ 7.99 µg/mL) in assay [11] and at least 36.7 µM in assay [12].
Take `CC[C@H](C)[C@H](NC(=O)[C@H](CS)NC(=O)[C@H](Cc1cnc[nH]1)NC(=O)[C@H](CCCN=C(N)N)NC(=O)[C@@H](N)CCCN=C(N)N)C(=O)N[C@@H](CCCCN)C(=O)N[C@@H](CCCCN)C(=O)N[C@@H](CS)C(=O)N[C@@H](CCSC)C(=O)N[C@@H](CCCCN)C(=O)N[C@@H](CO)C(=O)N[C@@H](CCCN=C(N)N)C(=O)N[C@@H](CCCCN)C(=O)N[C@@H](Cc1cnc[nH]1)C(=O)N[C@@H](CC(N)=O)C(=O)N[C@@H](CCC(=O)O)C(=O)N[C@@H](CCCN=C(N)N)C(=O)N[C@@H](CCSC)C(=O)N[C@H](C(=O)N[C@@H](CCCN=C(N)N)C(=O)N[C@H](C(=O)N[C@@H](CCCN=C(N)N)C(=O)N[C@@H](CCCN=C(N)N)C(=O)N[C@@H](CCCCN)C(=O)O)[C@@H](C)CC)[C@@H](C)CC` [RRHCIKKCMKSRKHNERMIRIRRK]: the MIC in [13] is 5 µM (≈ 15.8 µg/mL); in assay [14] it was at least 40 µM; in [15] it was at least 300 µM.
For `CC[C@H](C)[C@H](NC(=O)[C@H](CCCCN)NC(=O)[C@H](CCCCN)NC(=O)[C@H](Cc1ccccc1)NC(=O)[C@H](CC(C)C)NC(=O)[C@H](CCCCN)NC(=O)[C@@H](N)Cc1c[nH]c2ccccc12)C(=O)N[C@@H](CC(C)C)C(=O)N[C@@H](CCCCN)C(=O)N[C@@H](Cc1c[nH]c2ccccc12)C(=O)N[C@@H](CC(C)C)C(N)=O` [WKLFKKILKWL], the minimal inhibitory concentration (MIC) in assay [16] is 22.4 µM (≈ 33.6 µg/mL); in assay [17], 5.92 µM (≈ 8.89 µg/mL); in assay [18] it was 1.73 µM (≈ 2.6 µg/mL); in [19] it was 22.4 µM (≈ 33.6 µg/mL); in assay [20] it was 5.92 µM (≈ 8.89 µg/mL); in [21], at least 35.4 µM. This molecule returned a minimal inhibitory concentration (MIC) in assay [22] of 2 µM (≈ 3 µg/mL).
For `CC[C@H](C)[C@H](NC(=O)CNC(=O)[C@H](CC(=O)O)NC(=O)[C@@H](N)CC(=O)O)C(=O)N[C@@H](Cc1ccccc1)C(=O)N[C@H](C(=O)N[C@@H](C)C(=O)N[C@@H](Cc1ccccc1)C(=O)N[C@H](C(=O)N[C@@H](C)C(=O)N[C@H](C(=O)N[C@@H](CC(N)=O)C(=O)N[C@H](C(=O)N[C@H](C(=O)N[C@@H](CC(C)C)C(=O)N[C@H](C(=O)N[C@H](C(=O)N[C@H](C(=O)N[C@@H](Cc1ccccc1)C(=O)N[C@@H](Cc1ccc(O)cc1)C(=O)O)[C@@H](C)CC)C(C)C)[C@@H](C)O)[C@@H](C)CC)[C@@H](C)CC)[C@@H](C)CC)[C@@H](C)CC)[C@@H](C)CC` [DDGIFIAFIAINIILTVIFY], the values for the MIC in [23], in assay [24] and in [25] were 2.2 µM (≈ 5 µg/mL), at least 271 µM and at least 271 µM, respectively.
Turning to `CC[C@H](C)[C@H](NC(=O)[C@H](CCCN=C(N)N)NC(=O)[C@H](CCCN=C(N)N)NC(=O)[C@H](Cc1c[nH]c2ccccc12)NC(=O)[C@@H](N)Cc1ccccc1)C(=O)N[C@@H](CCCN=C(N)N)C(=O)N[C@H](C(N)=O)C(C)C` [FWRRIRV], the values for the MIC in assay [26], in [27] and in assay [28] were at least 124 µM, 31 µM (≈ 32 µg/mL) and at least 62 µM, respectively.

(Values after DBAASP.)
